Assay [1] is filed under the species Rattus norvegicus. The experiment in a line: Effect on DA-sensitive adenylate cyclase activity in rat striatal homogenates. Format: functional.
The species entered for assay [2] is Rattus norvegicus. The experiment in a line: Inhibition of the uptake of [3H]DA by corpus striatum synaptosomes of reserpine-pretreated rat. Format: functional.
For assay [3], the species on record is Rattus norvegicus. The experiment in a line: Reported to half-maximally effective concentration of reserpine-pretreated rat.

For `Oc1ccc([C@H]2CC3CC[C@H]2NC3)cc1O` (relative stereo) [listing 1 of 2 here], the Activity in assay [1] stood at 93%.
In the case of `N[C@H]1C[C@@H]1c1ccccc1` (racemic), the half-maximal inhibitory concentration (IC50) in assay [2] (Rattus norvegicus, Corpus striatum) was 0.9 µM; in assay [3] it was 1.7 µM.
`NCCc1ccc(O)c(O)c1`: the Activity in assay [1] was 210%.
In the case of `Oc1ccc([C@H]2CC3CC[C@H]2NC3)cc1O` (relative stereo) [listing 2 of 2 here], the IC50 in assay [2] was found to be 32 µM.
Still for that read-out and setting: under `Oc1ccc([C@H]2CC3CC[C@H]2NC3)cc1O` (stereo in doubt; 1) [listing 1 of 2 here] stands 110 µM.
On to `Oc1ccc([C@H]2CC3CC[C@H]2NC3)cc1O` (stereo in doubt; 1) [listing 2 of 2 here], for which the Activity in assay [1] was 117%.

The record behind these values is ChEMBL document CHEMBL1122015, “Rigid analogues of dopamine: synthesis and interaction of 6-exo- and 6-endo-(3',4'-dihydroxyphenyl)-2-azabicyclo[2.2.2]octanes with dopamine uptake sites and receptors” (J Med Chem, 1982).
